Laboratory results: US11292791B2 (priority 2017, dated 2022)

Target: BRD4 (Homo sapiens (Human), UniProt O60885)
Details: read-out: BRD4 IC50 (μM gmean)

Compound | IC50 [µM]
COC(=O)N1c2ccc3c(nc(C(C)Cn4ccc(C)n4)n3C3CCC(C(=O)O)CC3)c2CC[C@@H]1C (stereo partly shown) [Example 824] | 1 to 1000
COC(=O)N1c2ccc3c(nc(C(C)Cn4ccc(Cl)n4)n3C3CCCC(C(=O)O)C3)c2CC[C@@H]1C (stereo partly shown) [Example 827] | 1 to 1000
COC(=O)N1c2ccc3c(nc(Cc4ncc(Cl)cn4)n3[C@@H]3CCC[C@@H](C(=O)O)C3)c2CC[C@@H]1C [Example 828] | 1 to 1000
COC(=O)N1c2ccc3c(nc(CC(C(=O)O)c4ccc(C)cc4)n3C3CCCOC3)c2CC[C@@H]1C (stereo partly shown) [Example 829] | 1 to 1000
COC(=O)N1c2ccc3c(nc(Nc4ccc(Cl)cc4)n3[C@@H]3CCC[C@@H](C(=O)O)C3)c2CC[C@@H]1C [Example 831] | 1 to 1000
COC(=O)N1c2ccc3c(nc(C(C)Oc4cnccn4)n3C3CCC(C(=O)O)CC3)c2CC[C@@H]1C (stereo partly shown) [Example 833] | 1 to 1000
COC(=O)N1c2ccc3c(nc(C(C)Cn4cc(C)cn4)n3C3CCS(=O)(=O)C3)c2CC[C@@H]1C (stereo partly shown) [Example 834] | 1 to 1000
COC(=O)[C@@H]1CCC[C@@H](n2c(Cc3ccccc3)nc3c4c(ccc32)N(C(=O)OC)[C@@H](C)CC4)C1 [Example 840] | 1 to 1000
COC(=O)N1c2ccc3c(nc(Nc4ccccc4)n3[C@H]3CC[C@H](C(=O)O)CC3)c2CC[C@@H]1C [Example 843] | 1 to 1000
COC(=O)N1c2ccc3c(nc(C(C)Cn4cc(C)cn4)n3C3CCS(=O)(=O)C3)c2CC[C@@H]1C (stereo partly shown) [Example 844] | 1 to 1000
COC(=O)N1c2ccc3c(nc(CC(C(=O)O)c4ccc(C)c(F)c4)n3C3CCCOC3)c2CC[C@@H]1C (stereo partly shown) [Example 845] | 1 to 1000
COC(=O)N1c2ccc3c(nc(Nc4ccc(OC)cc4F)n3[C@@H]3CCC[C@@H](C(=O)O)C3)c2CC[C@@H]1C [Example 846] | 1 to 1000
COC(=O)N1c2ccc3c(nc(CC(C(=O)O)c4ccccc4)n3-c3ccc(OC)cc3)c2CC[C@@H]1C (stereo partly shown) [Example 849] | 1 to 1000
COC(=O)N1c2ccc3c(nc(Nc4ccc(OC)cc4F)n3[C@H]3CC[C@H](C(=O)O)CC3)c2CC[C@@H]1C [Example 851] | 1 to 1000
COC(=O)N1c2ccc3c(nc(CC(C(=O)O)c4cccc5ccccc45)n3C3CCCOC3)c2CC[C@@H]1C (stereo partly shown) [Example 852] | 1 to 1000
COC(=O)N1c2ccc3c(nc(C4(c5cnccn5)CC4)n3[C@@H]3CCC[C@@H](C(=O)O)C3)c2CC[C@@H]1C [Example 856] | 1 to 1000
COC(=O)N1c2ccc3c(nc(Cc4ccc(N5CCCC5=O)cc4)n3[C@@H]3CCC[C@@H](C(=O)O)C3)c2CC[C@@H]1C [Example 858] | 1 to 1000
COC(=O)N1c2ccc3c(nc(C(C)Cn4cccn4)n3C3CCCS(=O)(=O)C3)c2CC[C@@H]1C (stereo partly shown) [Example 860] | 1 to 1000
COC(=O)N1c2ccc3c(nc(C(C)Cn4cc(C(F)F)cn4)n3C3CCCC(C(=O)O)C3)c2CC[C@@H]1C (stereo partly shown) [Example 862] | 1 to 1000
COC(=O)N1c2ccc3c(nc(CC4CCOCC4)n3[C@@H]3CCC[C@@H](C(=O)O)C3)c2CC[C@@H]1C [Example 863] | 1 to 1000
COC(=O)N1c2ccc3c(nc(C(C)Cc4cnn(C)c4)n3C3CCCC(C(=O)O)C3)c2CC[C@@H]1C (stereo partly shown) [Example 867] | 1 to 1000
COC(=O)N1c2ccc3c(nc(CC(C(=O)O)c4cccc(C(F)F)c4)n3C3CCCOC3)c2CC[C@@H]1C (stereo partly shown) [Example 868] | 1 to 1000
COC(=O)N1c2ccc3c(nc(CC(C(=O)O)c4ccc5ccccc5c4)n3C3CCCOC3)c2CC[C@@H]1C (stereo partly shown) [Example 870] | 1 to 1000
COC(=O)N1c2ccc3c(nc(CCn4ccccc4=O)n3[C@@H]3CCC[C@@H](C(=O)O)C3)c2CC[C@@H]1C [Example 871] | 1 to 1000
COC(=O)N1c2ccc3c(nc(CC(C(=O)O)c4ccc(C)cc4)n3C3CCCOC3)c2CC[C@@H]1C (stereo partly shown) [Example 872] | 1 to 1000

Compound | IC50 [µM]
COC(=O)N1c2ccc3c(nc(Nc4ccc(F)cc4)n3[C@@H]3CCC[C@@H](C(=O)O)C3)c2CC[C@@H]1C [Example 876] | 1 to 1000
COC(=O)N1c2ccc3c(nc(C(C)Cn4cccn4)n3C3CCCC(C(=O)O)C3)c2CC[C@@H]1C (stereo partly shown) [Example 878] | 1 to 1000
COC(=O)N1c2ccc3c(nc(Nc4ccc(F)cc4)n3[C@H]3CC[C@H](C(=O)O)CC3)c2CC[C@@H]1C [Example 880] | 1 to 1000
COC(=O)N1c2ccc3c(nc(S(=O)(=O)Cc4ccccc4)n3[C@H]3CC[C@H](C(=O)O)CC3)c2CC[C@@H]1C [Example 882] | 1 to 1000
COC(=O)N1c2ccc3c(nc(CC(C(=O)O)c4cccc(C)c4)n3C3CCCOC3)c2CC[C@@H]1C (stereo partly shown) [Example 885] | 1 to 1000
COC(=O)N1c2ccc3c(nc(C(C)Oc4cnccn4)n3C3CCC(C(=O)O)CC3)c2CC[C@@H]1C (stereo partly shown) [Example 887] | 1 to 1000
COC(=O)N1c2ccc3c(nc(CC(C(=O)O)c4ccc(C(C)C)cc4)n3C3CCCOC3)c2CC[C@@H]1C (stereo partly shown) [Example 888] | 1 to 1000
COC(=O)N1c2ccc3c(nc(CC(C(=O)O)c4ccccc4)n3C3COCC(F)(F)C3)c2CC[C@@H]1C (stereo partly shown) [Example 891] | 1 to 1000
COC(=O)N1c2ccc3c(nc(CC4CCN(C(C)=O)CC4)n3[C@@H]3CCC[C@@H](C(=O)O)C3)c2CC[C@@H]1C [Example 892] | 1 to 1000
COC(=O)N1c2ccc3c(nc(C(C)Cc4cnn(C)c4)n3C3CCC(C(=O)O)CC3)c2CC[C@@H]1C (stereo partly shown) [Example 894] | 1 to 1000
COC(=O)N1c2ccc3c(nc(S(=O)(=O)c4ccccc4)n3[C@H]3CC[C@H](C(=O)O)CC3)c2CC[C@@H]1C [Example 895] | 1 to 1000
COC(=O)N1c2ccc3c(nc(CC(=O)N4CCCCC4)n3[C@@H]3CCC[C@@H](C(=O)O)C3)c2CC[C@@H]1C [Example 896] | 1 to 1000
COC(=O)N1c2ccc3c(nc(CC(C(=O)O)c4ccc(Cl)cc4)n3C3CCCOC3)c2CC[C@@H]1C (stereo partly shown) [Example 900] | 1 to 1000
COC(=O)N1c2ccc3c(nc(CC(C(=O)O)c4ccc(C(F)F)cc4)n3C3CCCOC3)c2CC[C@@H]1C (stereo partly shown) [Example 901] | 1 to 1000
COC(=O)N1c2ccc3c(nc(CC(C(=O)O)c4ccc(C(F)F)cc4)n3C3CCCOC3)c2CC[C@@H]1C (stereo partly shown) [Example 902] | 1 to 1000
COC(=O)N1c2ccc3c(nc(CC(C(=O)O)c4ccccc4)n3C3COCC(F)(F)C3)c2CC[C@@H]1C (stereo partly shown) [Example 903] | 1 to 1000
COC(=O)N1c2ccc3c(nc(CC(C(=O)O)c4ccc(C5CC5)cc4)n3C3CCCOC3)c2CC[C@@H]1C (stereo partly shown) [Example 904] | 1 to 1000
COC(=O)N1c2ccc3c(nc(CC(C(=O)O)c4ccccc4)n3-c3cccc(C#N)c3)c2CC[C@@H]1C (stereo partly shown) [Example 905] | 1 to 1000
COC(=O)N1c2ccc3c(nc([C@H](C)Cn4cc(Cl)cn4)n3[C@H]3CC[C@H](C(=O)O)CC3)c2CC[C@@H]1C [Example 907] | 1 to 1000
COC(=O)N1c2ccc3c(nc(Oc4ccccc4)n3[C@H]3CC[C@H](C(=O)O)CC3)c2CC[C@@H]1C [Example 908] | 1 to 1000
COC(=O)N1c2ccc3c(nc(Nc4c(C)n[nH]c4C)n3[C@H]3CC[C@H](C(=O)O)CC3)c2CC[C@@H]1C [Example 909] | 1 to 1000
COC(=O)N1c2ccc3c(nc(C(C)Cn4cc(C(F)F)cn4)n3C3CCC(C(=O)O)CC3)c2CC[C@@H]1C (stereo partly shown) [Example 912] | 1 to 1000
COC(=O)N1c2ccc3c(nc(CC(C(=O)O)c4ccc(C)cc4)n3C3COCC(F)(F)C3)c2CC[C@@H]1C (stereo partly shown) [Example 913] | 1 to 1000
COC(=O)N1c2ccc3c(nc(CC(C(=O)O)c4ccccc4)n3-c3ccc(C#N)cc3)c2CC[C@@H]1C (stereo partly shown) [Example 914] | 1 to 1000
